# Measurements taken from PMC2788672 (Journal of medicinal chemistry, 2009).
# “Also recorded” adds a separate entry of the source. Where two headings read alike, the source gives them in different places.
# How the values were obtained:
# [1] = system: P. carinii; assay: In vitro anti-P. carinii ATP detection assay; format: cell-based, Pneumocystis carinii; conditions: for IC50: Pneumocystis carinii
# [2] = system: A549 human adenocarcinoma epithelial lung cells; assay: Cytotoxicity, viability of A549 cells; format: cell-based
# [3] = system: sporogonic development of Plasmodium berghei ANKA in Anopheles stephensi; assay: In vivo transmission-blocking activity; conditions: single i.p. dose to mice
# [4] = system: chloroquine-resistant P. falciparum strain W2; assay: In vitro blood-schizontocidal activity assay; format: cell-based, Plasmodium falciparum; conditions: P. falciparum W2, 48 h incubation
# [5] = system: P. carinii; conditions: 72 h, ref [28], cited from earlier work; for IC50: read-out: Anti-P. carinii activity IC50
# [6] = system: chloroquine-resistant P. falciparum strain W2; conditions: cited from earlier work; for IC50: read-out: Activity against blood stage forms IC50, ref [28]
# [7] = 24 h, read-out: Anti-P. carinii activity IC50, 24 h
# [8] = 48 h, read-out: Anti-P. carinii activity IC50, 48 h
# [9] = 72 h, read-out: Anti-P. carinii activity IC50, 72 h
SMILES,"IC50 [1, 7] [µg/mL]","IC50 [1, 8] [µg/mL]","IC50 [1, 9] [µg/mL]",Mean no. of oocysts per mosquito±SEM ([3]; dose 10 µmol/kg),Mean no. of oocysts per mosquito±SEM ([3]; dose 50 µmol/kg),further results
COc1cc(NC(C)CCCN2C(=O)CN(C(C)=O)C2(C)C)c2ncccc2c1 (stereo not shown) [Compound 6],,40.5,14.6,,,Anti-P. carinii activity (activity scale) ([1]; 24 h): Inactive; Activity against blood stage forms IC50 [4]: complete loss of activity; also recorded: devoid of blood-schizontocidal activity
COc1cc(N(C(C)=O)C(C)CCCN2C(=O)CN(C(C)=O)C2(C)C)c2ncccc2c1 (stereo not shown) [Compound 7],,,,,,Anti-P. carinii activity (activity scale) ([1]; 24 h): Inactive; Anti-P. carinii activity (activity scale) ([1]; 48 h): Inactive; Anti-P. carinii activity (activity scale) ([1]; 72 h): Inactive; Activity against blood stage forms IC50 [4]: devoid of blood-schizontocidal activity
"COc1cc(NC(C)CCCN)c2ncccc2c1 (stereo not shown) [Compound 1, primaquine, reference compound]",,,,3.5 ±1.2,0.2 ±0.2,"IC50 ([1]; 24 h, read-out: Anti-P. carinii activity IC50): 4.7 µg/mL; IC50 ([1]; 48 h, read-out: Anti-P. carinii activity IC50): 2.2 µg/mL; IC50 ([1]; 72 h, read-out: Anti-P. carinii activity IC50): 0.9 µg/mL"
COc1cc(NC(C)CCCN2C(=O)[C@@H](C)NC2(C)C)c2ncccc2c1 (stereo partly shown) [Compound 4b],,,,,,Anti-P. carinii activity IC50 [5]: 83.7 µg/mL; IC50 [5]: 226 µM; IC50 [6]: > 50 µM; Activity against blood stage forms IC50 ([6]; ref [28]): complete loss of activity
COc1cc(NC(C)CCCN2C(=O)CNC2(C)C)c2ncccc2c1 (stereo not shown) [Compound 4a],,,,,,Anti-P. carinii activity IC50 [5]: 8.3 µg/mL; IC50 [5]: 23 µM; IC50 [6]: 9.1 µM

# Second part, led by results:
"IC50 [1, 7] [µg/mL]","IC50 [1, 8] [µg/mL]","IC50 [1, 9] [µg/mL]",SMILES,Mean no. of oocysts per mosquito±SEM ([3]; dose 10 µmol/kg),Mean no. of oocysts per mosquito±SEM ([3]; dose 50 µmol/kg),further results
18.1,15.5,11.6,COc1cc(NC(C)CCCN2C(=O)CN(C(=O)CN)C2(C)C)c2ncccc2c1 (stereo not shown) [Compound 5a],,,Cytotoxicity (A549 cells) IC50 at 72 h [2]: no toxicity
,32.2,22.3,COc1cc(NC(C)CCCN2C(=O)[C@@H](C)N(C(=O)CN)C2(C)C)c2ncccc2c1 (stereo partly shown) [Compound 5h],3.3 ±1.1,1.8 ±0.5,Anti-P. carinii activity (activity scale) ([1]; 24 h): Inactive; Cytotoxicity (A549 cells) IC50 at 72 h [2]: no toxicity
24.7,9.2,6.2,COc1cc(NC(C)CCCN2C(=O)CN(C(=O)[C@H](N)C(C)C)C2(C)C)c2ncccc2c1 (stereo partly shown) [Compound 5c],,,
14.6,8.4,5.1,COc1cc(NC(C)CCCN2C(=O)CN(C(=O)[C@H](N)CC(C)C)C2(C)C)c2ncccc2c1 (stereo partly shown) [Compound 5d],,,
12.9,7.5,4.6,"CC[C@H](C)[C@@H](N)C(=O)N1CC(=O)N(CCCC(C)Nc2cc(OC)cc3cccnc23)C1(C)C (stereo partly shown) [Compound 5e, 1-isoleucyl-3-(4-(6-methoxyquinolin-8-ylamino)pentyl)-2,2-dimethylimidazolidin-4-one]",4.9 ±0.6,1.5 ±0.5,
11.6,6.4,3.4,COc1cc(NC(C)CCCN2C(=O)CN(C(=O)[C@H](N)CCSC)C2(C)C)c2ncccc2c1 (stereo partly shown) [Compound 5f],1.2 ±0.4,3.8 ±1.4,
16.9,8,3.6,COc1cc(NC(C)CCCN2C(=O)CN(C(=O)[C@@H](C)N)C2(C)C)c2ncccc2c1 (stereo partly shown) [Compound 5b],,1.3 ±0.3,
12.1,9.3,5.1,COc1cc(NC(C)CCCN2C(=O)CN(C(=O)[C@H](N)Cc3ccccc3)C2(C)C)c2ncccc2c1 (stereo partly shown) [Compound 5g],3.7 ±1.2,2.2 ±0.8,
